Experimental data published in paper PMC4591660 (Toxins, 2015).
“Also recorded” adds a separate entry of the source. Like-named read-outs stand apart in the source and are kept apart here.

Assays:
WT mice = type: in vivo, C57BL/6J; details: 10 μL intraplantar, left hind paw, 30 min recording, n = 10; for pain behavior (duration of paw licking/biting): 500 µM, vs saline; for pain behavior (paw licking), dose-response: different doses
Method: (§1) Mice, C57BL/6J, were used as wild type (WT) in these experiments. TRPV1-KO mice were purchased from Model Animal Research Center of Nanjing University, China. All the experiments using animals were carried out in accordance with recommendations in the Guide for the Care and Use of Laboratory Animals of Kunming Institute of Zoology, Chinese Academy of Sciences. Experimental protocols using animals in this work were approved by the Institutional Animal Care and Use Committees at Kunming Institute of Zoology, Chinese Academy of Sciences (2014-204). All efforts were made to reduce the number of animals used and to minimize the suffering of animals.
(§2) Control mice were injected with the same volume of saline. Immediately after injection, the time of paw licking was recorded by digital video camera for 30 min.
(§3) Experimental data of electrophysiological recordings were acquired and analyzed by using the Pulse program and Igor Pro. The data obtained in experiments involving animals were analyzed by GraphPad Prism 5 (GraphPad Software, Inc., San Diego, CA, USA). All of the data points are shown as the means ± S.E. n is presented as the number of experiments. Statistical analysis was carried out by Student’s t test, and * indicated a significant difference (p < 0.01).

TRPV1 KO mice = type: in vivo; details: 500 µM, 10 μL intraplantar, left hind paw; 30 min recording; n = 10; vs saline
Method: as §1, §2, §3

Kv1.1 = tested on: Kv1.1; set-up: method as in PMID 11173083, PMID 10565809; details: ref [37],[38]; cited from earlier work
Kv1.3 = tested on: Kv1.3; set-up: method as in PMID 11173083, PMID 10565809; details: ref [37],[38]; cited from earlier work
[1] = tested on: DRG neurons of TRPV1 KO mice; type: cell-based, mouse
Method: (§4) DRG neurons from WT or TRPV1 KO mice were acutely dissociated and maintained in short-term primary culture as previously described. DRGs were incubated in 5% CO2/95% air at 37 °C for 1–4 h prior to patch-clamp experiments. HEK293T cells were used for mKv1.1 or mKv1.3 expression. Cells were grown under standard tissue culture conditions (5% CO2, 37 °C) in DMEM supplemented with 10% fetal bovine serum. Cells were transfected with DNA mixture (channel constructs and a green fluorescent protein (GFP) reporter plasmid) using lipofectamine 2000 transfection reagent (Invitrogen, Carlsbad, CA, USA) following the manufacturer’s instructions and used for electrophysiology 24–48 h after transfection. Cells with GFP fluorescence were selected for patch-clamp recordings […] after transfection.
(§5) All patch clamp recordings were carried out at temperature 20 °C using an EPC-10 amplifier (HEKA Electronik, Lambrecht, Germany) according to the previous report. Recording pipettes were made from borosilicate glass capillary tubing, and their resistances were 3–5 MΩ when filled with internal solution. For mKv1.1 and mKv1.3 current recordings, the cells were held at −80 mV for 5 min after the whole-cell construction was established. All of the potassium current traces were elicited by a 300-ms depolarizing potential of 0 mV from a holding potential of −80 mV. The standard pipette solution contained (in mM): 140 KF, 4 MgCl2, 5 ATP-Na, 1 EGTA, and 10 HEPES, pH 7.3. The standard bath solution contained (in mM): 137 NaCl, 5.9 KCl, 2.2 CaCl2, 1.2 MgCl2, 14 glucose, and 10 HEPES, pH 7.3. For mice TRPV1 channel recordings, the pipette and bathing solution contained (in mM): 130 NaCl, 0.2 EDTA, and 3 HEPES, pH 7.2.
as §3, with “Statistical analysis was carried out by Student’s t test, and * indicated a significant difference (p < 0.01).” left out

DRG neurons of WT mice = type: cell-based, mouse; details: 10 µM; DRG neurons 20 µm ≤ cell ≤ 35 µm; 20 °C
Method: as §4, §5
as §3, with “Statistical analysis was carried out by Student’s t test, and * indicated a significant difference (p < 0.01).” left out

mTRPV1 = molecular target: T1, mTRPV1 (Mus musculus, UniProt Q704Y3); type: cell-based
T1 construct: expressed in transfected cells; host or cells: HEK293T
Method: (§6) Thus, electrophysiological tests on transient transfected TRPV1 were performed. […] To our knowledge, HEK293T cells have been reported to endogenously express acid-sensing ion channels (ASICs).
as §5, §3

native HEK293T cells = type: cell-based; details: negative for TRPV1, 20 °C, endogenous ASICs
Method: as §6, §5, §3

TRPV1 = details: cited from earlier work

T1 sequence (Q704Y3 whole entry): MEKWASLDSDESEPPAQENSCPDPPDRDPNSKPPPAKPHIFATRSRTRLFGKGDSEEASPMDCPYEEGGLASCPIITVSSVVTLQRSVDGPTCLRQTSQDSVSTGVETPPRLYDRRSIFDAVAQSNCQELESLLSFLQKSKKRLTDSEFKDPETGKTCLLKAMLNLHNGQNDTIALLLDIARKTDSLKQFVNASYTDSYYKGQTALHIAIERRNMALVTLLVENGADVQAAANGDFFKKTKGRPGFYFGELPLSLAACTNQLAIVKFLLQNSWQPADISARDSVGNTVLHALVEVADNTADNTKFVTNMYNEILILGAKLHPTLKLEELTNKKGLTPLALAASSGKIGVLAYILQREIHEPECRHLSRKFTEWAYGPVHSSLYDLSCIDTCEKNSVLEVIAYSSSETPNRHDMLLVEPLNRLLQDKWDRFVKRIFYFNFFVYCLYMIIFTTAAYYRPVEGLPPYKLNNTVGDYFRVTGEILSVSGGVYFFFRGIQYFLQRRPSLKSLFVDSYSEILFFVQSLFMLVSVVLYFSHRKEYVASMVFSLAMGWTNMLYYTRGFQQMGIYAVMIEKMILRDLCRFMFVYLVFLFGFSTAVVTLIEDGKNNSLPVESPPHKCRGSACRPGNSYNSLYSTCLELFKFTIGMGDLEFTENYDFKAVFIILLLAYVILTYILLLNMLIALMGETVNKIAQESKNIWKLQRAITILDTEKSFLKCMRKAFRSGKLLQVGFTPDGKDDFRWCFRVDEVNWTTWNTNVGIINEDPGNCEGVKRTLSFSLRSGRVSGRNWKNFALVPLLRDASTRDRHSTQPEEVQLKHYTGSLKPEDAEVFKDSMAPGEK

Compound	pain behavior (duration of paw licking/biting) (WT mice)	pain behavior (paw licking), dose-response (WT mice)	pain behavior (paw licking), dose-response (WT mice; listed as Kaliotoxin)	pain behavior (duration of paw licking/biting) (TRPV1 KO mice)	inhibition of Kv1.1 (Kv1.1)	inhibition of Kv1.3 (Kv1.3)	normalized evoked currents, TRPV1 KO compared with WT DRG neurons [1]	evoked currents on DRG neurons (TRPV1 KO) ([1]; 10 µM, DRG neurons 20 µm ≤ cell ≤ 35 µm, 20 °C)	evoked currents on DRG neurons (WT) (DRG neurons of WT mice)	activation of TRPV1 (comparator agonists) (mTRPV1)	evoked currents in TRPV1-expressed HEK293T cells, ramp method (mTRPV1)	evoked currents in native HEK293T cells, ramp method (native HEK293T cells)	agonism on TRPV1 (TRPV1)	activation of TRPV1 (comparator agonists) (mTRPV1; HEK293T expressing mTRPV1, concentration not given, 20 °C)
kaliotoxin	unable to induce pain	did not induce pain	showed no significant pain behavior	only crude venom induced pain	potent inhibitor of Kv1.1 and Kv1.3	potent inhibitor of Kv1.1 and Kv1.3								
COc1cc(CNC(=O)CCCC/C=C/C(C)C)ccc1O [capsaicin]	induced pain in WT mice	induced acute pain in a dose dependent manner					significantly higher in WT than TRPV1 KO mice; also recorded: significantly lower in TRPV1 KO mice than in WT mice	not TRPV1 KO mice; also recorded: did not evoke currents	effectively evoked the currents in DRG neurons of WT; also recorded: evoked the currents on DRG sensory neurons of WT mice	potently activated TRPV1	evoked the currents in HEK293T cells with over-expressed TRPV1 channels	did not evoke the currents	well-known agonist of TRPV1	
NCCOB(c1ccccc1)c1ccccc1 [2APB]														potently activated TRPV1
